Source: patent US9949479B2 (priority 2015, dated 2018)
Converted amounts (≈) assume the structure as drawn. Like-named read-outs stand apart in the source and are kept apart here.

Key:
[1] = assay type: in vivo, wheat
powdery mildew = assay type: in vivo; details: dose as in E145
Fusarium graminearum = test: microbe, parasite or virus in culture; assay type: cell-based; details: sensitive strains, Fusarium graminearum (both types of fusaria)
[2] = assay type: in vivo, wheat; details: dose as in E145
[3] = assay type: in vivo, wheat; details: Serial 29: Carbendazim 50 g a.i. (control agent)
wheat scab [4] = assay type: in vivo, Fusarium spp.; details: sprayed twice; g ai. agent/mu, Jinggangmycin+Metconazole by row: r16 1+15; r17 3+10; r18 5+5; r19 5+10; r20 5+15; r21 10+3; r22 10+10; r23 10+15; r24 50+3; r25 50+10; r26 50+15; r27 100+5; r28 100+10; Jinggangmycin alone r29 100; r30 50; r31 10; r32 5; r33 3; r34 1; Metconazole alone r35 15; r36 10; r37 5; r38 3; r39 Carbendazim 40
[5] = parameters: species or system wheat; details: in vivo
wheat scab [6] = assay type: in vivo, Fusarium spp.
Fusarium asiaticum = test: microbe, parasite or virus in culture; assay type: cell-based
[7] = system: DON toxin synthesis capability of thalli; parameters: species or system Fusarium spp.; details: in vivo
leaf blight = assay type: in vivo; details: dose as in E145
wheat scab [8] = assay type: in vivo, Fusarium spp.; details: Serial 29: Carbendazim 50 g a.i. (control agent)
rust = assay type: in vivo; details: dose as in E145

## COC(=O)Nc1nc2ccccc2[nH]1 [Carbendazim, carbendazim]
[1]; dose by row as in E139
  Grain Toxin Content: 4.4 μg of toxin/g of kernels
[1]; used for treatment alone
  decrease of toxin contamination level in comparison with the blank control: 58.5%
  toxin contamination level of grains: 4.4 mg/kg of grains
[1]; vs blank control, dose by row as in E139
  DON Contamination Reduction Rate %: 58.5%
Powdery mildew
  Disease Index Prevention Effect % Powdery Mildew: 52.6%
Fusarium graminearum
  ED50: 0.45 µg/mL (≈ 2.35 µM)
[2]
  Grain Toxin Content: 5.67 μg of toxin/g of kernels
[2]; vs control
  DON Reduction Percentage (%): 55.0%
[3]
  Grain Toxin Content (mg of DON/Kg of grain): 4.35 mg of DON/Kg of grain
  Rate of Decrease in Toxin Content in Grains (%): 32.7%
Wheat scab [4]
  Disease Index Prevention Effect % Head Blight: 38.6%
[5]
  Thousand Kernel Weight: 41.6 g
Wheat scab [6]; sprayed twice, g ai. agent/mu, Jinggangmycin+Metconazole by row: r12 0.5+25, r13 1+20, r14 5+5, r15 5+10, r16 5+15, r17 10+3, r18 10+5, r19 10+10, r20 10+15, r21 50+3, r22 50+5, r23 50+10, r24 50+15, r25 100+3, r26 100+5, r27 100+10, r28 100+15, r29 150+3, Jinggangmycin alone r30 0.5, r31 1, r32 5, r33 10, r34 50, r35 100, r36 150, Metconazole alone r37 3, r38 5, r39 10, r40 15, r41 20, r42 25, r4
  Disease Index Prevention Effect % Actual Prevention Effect: 67.5%
Wheat scab [6]; used for treatment alone
  prevention effect on head blight: 67.5%
Fusarium asiaticum
  ED50: 0.45 µg/mL (≈ 2.35 µM)
[7]
  DON Synthesis Capability: 28.94
Leaf blight
  Disease Index Prevention Effect % Leaf Blight: 48.5%
Wheat scab [8]
  Disease Index Prevention Effect % Head Blight: 49.04%
rust
  Disease Index Prevention Effect % Rust: 61.2%

## CCOC(=O)C(C#N)=C(N)c1ccccc1 [phenamacril]
Fusarium graminearum
  ED50: 0.165 µg/mL (≈ 0.763 µM)
Fusarium asiaticum; sensitive strains, Fusarium asiaticum (both types of fusaria)
  ED50: 0.165 µg/mL (≈ 0.763 µM)
